# Measurements reported in patent US8921273B2, “Substituted pyridazines having herbicidal action” (BASF SE, priority 2010, dated 2014).
# Tests used:
# Assay in all cases: greenhouse herbicidal activity, post-emergence treatment
# Details in all cases: application rate 0.5 kg/ha, scale from 0 to 100
# AMARE = type: in vivo, Amaranthus retroflexus
# Description: (§1) The seeds of the test plants were sown separately for each species. For the post-emergence treatment, the test plants were first grown to a height of 3 to 15 cm, depending on the plant habit, and only then treated with the active ingredients which had been suspended or emulsified in water. For this purpose, the test plants were either sown directly and grown in the same containers, or they were first grown separately as seedlings and transplanted into the test containers a few days prior to treatment. Depending on the species, the plants were kept at 10-25° C. or 20-35° C. The test period extended over 2 to 4 weeks. During this time, the plants were tended, and their response to the individual treatments was evaluated. Evaluation was carried out using a scale from 0 to 100. 100 means no emergence of the plants, or complete destruction of at least the aerial moieties, and 0 means no damage, or normal course of growth. A good herbicidal activity is given at values of at least 70 and a very good herbicidal activity is given at values of at least 85. The plants used in the greenhouse experiments belonged to the following species: [table]
# GALAP = type: in vivo, Galium aparine
# Description: as §1
# ECHCG = type: in vivo, Echinochloa crus-galli
# Description: as §1
# CHEAL = type: in vivo, Chenopodium album
# Description: as §1
Structure (SMILES),herbicidal activity against AMARE (AMARE),herbicidal activity against GALAP (GALAP),herbicidal activity against ECHCG (ECHCG),herbicidal activity against CHEAL (CHEAL)
"O=c1c(-c2cccc(C3=NOCC3)c2C(F)(F)F)c(O)c2nccnc2n1CC(F)F [I-2, 5-(2,2-difluoroethyl)-7-[3-(4,5-dihydroisoxazol-3-yl)-2-(trifluoromethyl)phenyl]-8-hydroxy-pyrido[2,3-b]pyrazin-6-one]",very good herbicidal activity (a very good herbicidal activity is given at values of at least 85),very good herbicidal activity (a very good herbicidal activity is given at values of at least 85),,
"O=c1c(-c2cc(Cl)cc(N3CCOCC3)c2C(F)(F)F)c(O)c2nccnc2n1CC(F)F [I-1, 7-[5-chloro-3-morpholino-2-(trifluoromethyl)phenyl]-5-(2,2-difluoroethyl)-8-hydroxy-pyrido[2,3-b]pyrazin-6-one]",,,very good herbicidal activity (a very good herbicidal activity is given at values of at least 85),very good herbicidal activity (a very good herbicidal activity is given at values of at least 85)
